According to patent US20260184675A1, “CHIRAL ISOMERIC SULFITE COMPOUND AND APPLICATION THEREOF” (Chengdu Hanova BioSciences Co., Ltd, priority 2024, published 2026):

Columns and labels:
eggs of Panonychus citri = assay: Effect on hatching of eggs of Panonychus citri, leaf disc method; format: in vivo; conditions: 1 ppm; for Hatching rate (%), Replicate 1 / Hatching rate (%), Replicate 2 / Hatching rate (%), Replicate 3 / Number of hatched larvae 5 days after insecticide delivery, Replicate 1 / Number of hatched larvae 5 days after insecticide delivery, Replicate 2 / Number of hatched larvae 5 days after insecticide delivery, Replicate 3: Panonychus citri eggs; for Hatching rate (%), Replicate 1 / Hatching rate (%), Replicate 2 / Hatching rate (%), Replicate 3: 5 days after delivery; for Number of hatched larvae 5 days after insecticide delivery, Replicate 1 / Number of hatched larvae 5 days after insecticide delivery, Replicate 2 / Number of hatched larvae 5 days after insecticide delivery, Replicate 3: leaf disc
Magnaporthe grisea = format: cell-based; conditions: 100 ppm; for Average antifungal rate (%) / Antifungal rate of Magnaporthe grisea (%), Replicate 1 / Antifungal rate of Magnaporthe grisea (%), Replicate 2 / Antifungal rate of Magnaporthe grisea (%), Replicate 3: 96-well plate; for Average antifungal rate (%): average of 3 replicates
[1] = system: pest eggs of Tetranychus cinnabarinus; assay: Effect on hatching of pest eggs of Tetranychus cinnabarinus, leaf disc method; format: in vivo; conditions: for Hatching rate (%): 7 days after insecticide delivery; for inhibitory effect on the hatching of pest eggs of Tetranychus cinnabarinus (in words): 1 ppm
Outline: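 Adult female mites laid eggs on 2.0 cm Vicia faba leaf discs for up to 36 h; discs with counted eggs were dipped 10 s in compound solution or water, then kept moist. Hatched eggs were counted 7 days after treatment and control effect was calculated by formula.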

[2] = system: eggs of Harmonia axyridis; assay: Effect on hatching of eggs of Harmonia axyridis, egg card immersion; format: in vivo; conditions: 100 ppm; for Number of hatched larvae 4 days after insecticide delivery, Replicate 1 / Number of hatched larvae 4 days after insecticide delivery, Replicate 2 / Number of hatched larvae 4 days after insecticide delivery, Replicate 3: Harmonia axyridis egg cards, immersed 30 seconds; for Hatching rate (%), Replicate 1 / Hatching rate (%), Replicate 2 / Hatching rate (%), Replicate 3: Harmonia axyridis eggs, 4 days after delivery
Outline: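 Egg cards (~20 eggs each) dipped 30 s in 100 ppm insecticide, air dried and kept moist at 27° C; 5 cards per treatment, 3 replicates. Hatching assessed 4 days after treatment against pre-treatment egg counts, and control effect calculated by formula.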

SMILES | inhibitory effect on the hatching of eggs of Panonychus citri (in words) (eggs of Panonychus citri) | inhibitory rate against Magnaporthe grisea (in words) (Magnaporthe grisea) | Average antifungal rate (%) (Magnaporthe grisea) | Antifungal rate of Magnaporthe grisea (%), Replicate 1 (Magnaporthe grisea) | Antifungal rate of Magnaporthe grisea (%), Replicate 2 (Magnaporthe grisea) | Antifungal rate of Magnaporthe grisea (%), Replicate 3 (Magnaporthe grisea) | Hatching rate (%) ([1]; 0.25 mg/L, Replicate 1) | Hatching rate (%) ([1]; 0.25 mg/L, Replicate 2) | Number of hatched larvae 7 days after insecticide delivery ([1]; 0.25 mg/L, Replicate 1) | Number of hatched larvae 7 days after insecticide delivery ([1]; 0.25 mg/L, Replicate 2) | Hatching rate (%) ([1]; 0.5 mg/L, Replicate 1) | Hatching rate (%) ([1]; 0.5 mg/L, Replicate 2) | Number of hatched larvae 7 days after insecticide delivery ([1]; 0.5 mg/L, Replicate 1) | Number of hatched larvae 7 days after insecticide delivery ([1]; 0.5 mg/L, Replicate 2) | Hatching rate (%) ([1]; 1 mg/L, Replicate 1) | Hatching rate (%) ([1]; 1 mg/L, Replicate 2) | Number of hatched larvae 7 days after insecticide delivery ([1]; 1 mg/L, Replicate 1) | Number of hatched larvae 7 days after insecticide delivery ([1]; 1 mg/L, Replicate 2) | inhibitory effect on the hatching of pest eggs of Tetranychus cinnabarinus (in words) [1] | inhibitory activity on the hatching of eggs of Harmonia axyridis (in words) [2] | further results
C[C@H](COS(=O)OCCF)Oc1ccc(Cl)cc1Cl (stereo partly drawn) [1-(R,R)] | good inhibitory effects | strong inhibitory rate | 98.96% | 99.41% | 99.12% | 98.34% | 45.45% | 45.10% | 36 | 28 | 4.26% | 5.56% | 45 | 68 | 0.00% | 0.00% | 56 | 62 | excellent inhibitory effects | strong inhibitory activities | Hatching rate (%), Replicate 1 (eggs of Panonychus citri; listed as 1-(R, R)): 0.00%; Hatching rate (%), Replicate 2 (eggs of Panonychus citri; listed as 1-(R, R)): 0.00%; Hatching rate (%), Replicate 3 (eggs of Panonychus citri; listed as 1-(R, R)): 0.00%; Number of hatched larvae 5 days after insecticide delivery, Replicate 1 (eggs of Panonychus citri; listed as 1-(R, R)): 0; Number of hatched larvae 5 days after insecticide delivery, Replicate 2 (eggs of Panonychus citri; listed as 1-(R, R)): 0; Number of hatched larvae 5 days after insecticide delivery, Replicate 3 (eggs of Panonychus citri; listed as 1-(R, R)): 0; Number of hatched larvae 4 days after insecticide delivery, Replicate 1 ([2]; listed as 1-(R, R)): 0; Number of hatched larvae 4 days after insecticide delivery, Replicate 2 ([2]; listed as 1-(R, R)): 0; Number of hatched larvae 4 days after insecticide delivery, Replicate 3 ([2]; listed as 1-(R, R)): 0; Hatching rate (%), Replicate 1 ([2]; listed as 1-(R, R)): 0.00%; Hatching rate (%), Replicate 2 ([2]; listed as 1-(R, R)): 0.00%; Hatching rate (%), Replicate 3 ([2]; listed as 1-(R, R)): 0.00%
CC(COS(=O)OCCF)Oc1ccc(Cl)cc1Cl (stereo not shown) [Compound 1] | good inhibitory effects | strong inhibitory rate | 95.42% | 96.34% | 95.11% | 94.82% | 72.22% | 67.92% | 20 | 17 | 32.58% | 38.30% | 42 | 29 | 0.00% | 1.64% | 53 | 60 | excellent inhibitory effects | strong inhibitory activities | Hatching rate (%), Replicate 1 (eggs of Panonychus citri): 0.00%; Hatching rate (%), Replicate 2 (eggs of Panonychus citri): 0.00%; Hatching rate (%), Replicate 3 (eggs of Panonychus citri): 0.00%; Number of hatched larvae 5 days after insecticide delivery, Replicate 1 (eggs of Panonychus citri): 0; Number of hatched larvae 5 days after insecticide delivery, Replicate 2 (eggs of Panonychus citri): 0; Number of hatched larvae 5 days after insecticide delivery, Replicate 3 (eggs of Panonychus citri): 0; Number of hatched larvae 4 days after insecticide delivery, Replicate 1 [2]: 7; Number of hatched larvae 4 days after insecticide delivery, Replicate 2 [2]: 6; Number of hatched larvae 4 days after insecticide delivery, Replicate 3 [2]: 6; Hatching rate (%), Replicate 1 [2]: 6.25%; Hatching rate (%), Replicate 2 [2]: 6.38%; Hatching rate (%), Replicate 3 [2]: 6.06%
CCC(COc1ccc(Cl)cc1Cl)OS(=O)OCCF (stereo not shown) [Compound 19] | good inhibitory effects | strong inhibitory rate | 95.57% | 97.23% | 95.14% | 94.35% | 72.22% | 69.74% | 15 | 23 | 34.69% | 30.49% | 32 | 57 | 0.00% | 0.00% | 71 | 65 | excellent inhibitory effects | strong inhibitory activities | Hatching rate (%), Replicate 1 (eggs of Panonychus citri): 0.00%; Hatching rate (%), Replicate 2 (eggs of Panonychus citri): 0.00%; Hatching rate (%), Replicate 3 (eggs of Panonychus citri): 0.00%; Number of hatched larvae 5 days after insecticide delivery, Replicate 1 (eggs of Panonychus citri): 0; Number of hatched larvae 5 days after insecticide delivery, Replicate 2 (eggs of Panonychus citri): 0; Number of hatched larvae 5 days after insecticide delivery, Replicate 3 (eggs of Panonychus citri): 0; Number of hatched larvae 4 days after insecticide delivery, Replicate 1 [2]: 3; Number of hatched larvae 4 days after insecticide delivery, Replicate 2 [2]: 5; Number of hatched larvae 4 days after insecticide delivery, Replicate 3 [2]: 4; Hatching rate (%), Replicate 1 [2]: 3.26%; Hatching rate (%), Replicate 2 [2]: 4.45%; Hatching rate (%), Replicate 3 [2]: 4.17%
CC(C)(COS(=O)OCCF)Oc1ccc(Cl)cc1Cl (stereo not shown) [R-10′] |  | strong inhibitory rate | 82.60% | 82.71% | 81.95% | 83.14% | 74.07% | 76.79% | 21 | 13 | 42.86% | 45.07% | 36 | 39 | 8.47% | 7.46% | 54 | 62 |  |  | Hatching rate (%), Replicate 1 (eggs of Panonychus citri): 10.29%; Hatching rate (%), Replicate 2 (eggs of Panonychus citri): 10.31%; Hatching rate (%), Replicate 3 (eggs of Panonychus citri): 9.62%; Number of hatched larvae 5 days after insecticide delivery, Replicate 1 (eggs of Panonychus citri): 14; Number of hatched larvae 5 days after insecticide delivery, Replicate 2 (eggs of Panonychus citri): 10; Number of hatched larvae 5 days after insecticide delivery, Replicate 3 (eggs of Panonychus citri): 10; Number of hatched larvae 4 days after insecticide delivery, Replicate 1 [2]: 17; Number of hatched larvae 4 days after insecticide delivery, Replicate 2 [2]: 14; Number of hatched larvae 4 days after insecticide delivery, Replicate 3 [2]: 12; Hatching rate (%), Replicate 1 [2]: 12.78%; Hatching rate (%), Replicate 2 [2]: 13.73%; Hatching rate (%), Replicate 3 [2]: 12.77%
CC(C)(COc1ccc(Cl)cc1Cl)OS(=O)OCCF (stereo not shown) [Compound S-10] | good inhibitory effects | strong inhibitory rate | 98.62% | 98.63% | 99.72% | 97.51% | 39.51% | 41.79% | 49 | 39 | 4.62% | 3.39% | 62 | 57 | 0.00% | 0.00% | 78 | 84 | excellent inhibitory effects | strong inhibitory activities | Hatching rate (%), Replicate 1 (eggs of Panonychus citri): 0.00%; Hatching rate (%), Replicate 2 (eggs of Panonychus citri): 0.00%; Hatching rate (%), Replicate 3 (eggs of Panonychus citri): 0.00%; Number of hatched larvae 5 days after insecticide delivery, Replicate 1 (eggs of Panonychus citri): 0; Number of hatched larvae 5 days after insecticide delivery, Replicate 2 (eggs of Panonychus citri): 0; Number of hatched larvae 5 days after insecticide delivery, Replicate 3 (eggs of Panonychus citri): 0; Number of hatched larvae 4 days after insecticide delivery, Replicate 1 [2]: 0; Number of hatched larvae 4 days after insecticide delivery, Replicate 2 [2]: 0; Number of hatched larvae 4 days after insecticide delivery, Replicate 3 [2]: 0; Hatching rate (%), Replicate 1 [2]: 0.00%; Hatching rate (%), Replicate 2 [2]: 0.00%; Hatching rate (%), Replicate 3 [2]: 0.00%
